Data: the CheMixHub viscosity set
Several values for one entry are separate records, joined by “and”; a condition that tells them apart may be missing. Equal entries are not always repeated.

Test: xn = mol fraction of the nth substance listed

CC(C)=O + CCCO
viscosity [mPa·s]
Conditions	293.15 K	298.15 K	303.15 K	308.15 K	313.15 K	318.15 K	323.15 K
100 kPa, x1 = 0.0998	1.594	1.433	1.292	1.169	1.061	0.9672	0.8879
100 kPa, x1 = 0.1998	1.18	1.075	0.9822	0.8994	0.825	0.7583	0.6972
100 kPa, x1 = 0.3	0.9113	0.8407	0.7774	0.7203	0.6684	0.6206	0.576
100 kPa, x1 = 0.4001	0.735	0.6844	0.6379	0.595	0.5538	0.5147	0.4769
100 kPa, x1 = 0.4999	0.6175	0.5801	0.5456	0.513	0.4815	0.4495	0.4195
100 kPa, x1 = 0.6	0.5137	0.4875	0.4629	0.4389	0.4158	0.392	0.3661
100 kPa, x1 = 0.6998	0.4493	0.429	0.4094	0.3911	0.3733	0.3543	0.3317
100 kPa, x1 = 0.8002	0.407	0.391	0.3751	0.3599	0.3448	0.3286	0.3156
100 kPa, x1 = 0.9	0.3728	0.3531	0.34	–	0.301	0.2875	0.279
100 kPa, x1 = 0.9001	–	–	–	0.3221	–	–	–
101 kPa, x1 = 0.1032	–	1.433	–	–	–	–	–
101 kPa, x1 = 0.2056	–	0.9891	–	–	–	–	–
101 kPa, x1 = 0.3073	–	0.7819	–	–	–	–	–
101 kPa, x1 = 0.4083	–	0.6403	–	–	–	–	–
101 kPa, x1 = 0.5086	–	0.5381	–	–	–	–	–
101 kPa, x1 = 0.6082	–	0.4652	–	–	–	–	–
101 kPa, x1 = 0.7072	–	0.4139	–	–	–	–	–
101 kPa, x1 = 0.8055	–	0.3742	–	–	–	–	–
101 kPa, x1 = 0.903	–	0.3453	–	–	–	–	–

Cc1ccccc1 + CCCCCCC
298.15 K, 101 kPa
Conditions	viscosity [mPa·s]
x2 = 0.4771	0.4775
x2 = 0.4859	0.476
x2 = 0.4953	0.474
x2 = 0.4983	0.4735
x2 = 0.4996	0.473
x2 = 0.5045	0.472
x2 = 0.5106	0.471
x2 = 0.5179	0.47
x2 = 0.5212	0.469
x2 = 0.5328	0.467
x2 = 0.5408	0.4655
x2 = 0.55	0.464
x2 = 0.561	0.4615
x2 = 0.579	0.458
x2 = 0.603	0.4535

CC(C)=O + CCOC(C)=O
viscosity [mPa·s], 101 kPa
Conditions	x2 = 0.0999	x2 = 0.2009	x2 = 0.3284	x2 = 0.4015	x2 = 0.4977	x2 = 0.5969	x2 = 0.6915	x2 = 0.7908	x2 = 0.9076
293.15 K	0.3328	0.3471	0.3615	0.3751	0.3871	0.4003	0.4129	0.4274	0.4419
298.15 K	0.317	0.3305	0.3438	0.3563	0.3674	0.3795	0.3913	0.4035	0.4179
303.15 K	0.3022	0.3151	0.3274	0.3375	0.3502	0.3603	0.3716	0.3825	0.3961
313.15 K	0.2757	0.2877	0.2982	0.3065	0.3182	0.3262	0.3364	0.3455	0.3573

COc1ccccc1 + C1COCCO1
viscosity [mPa·s]
Conditions	293.15 K	298.15 K	303.15 K	308.15 K	313.15 K	323.15 K
101 kPa, x1 = 0.0973	–	1.154	1.063	0.9679	0.9021	–
101 kPa, x1 = 0.1993	–	1.136	1.04	0.9633	0.8956	–
101 kPa, x1 = 0.3019	–	1.105	1.021	0.9435	0.8729	–
101 kPa, x1 = 0.4003	–	1.094	1.011	0.9342	0.8659	–
101 kPa, x1 = 0.4999	–	–	–	0.9209	0.854	–
101 kPa, x1 = 0.5976	–	1.06	0.983	0.9122	0.8465	–
101 kPa, x1 = 0.7024	–	–	0.9723	0.9001	0.8338	–
101 kPa, x1 = 0.7992	–	–	0.9564	0.8957	0.8226	–
101 kPa, x1 = 0.9003	–	1.019	0.9451	0.8765	0.8129	–
101.3 kPa, x1 = 0.1191	1.251	–	1.062	–	0.916	0.799
101.3 kPa, x1 = 0.2422	1.218	–	1.037	–	0.898	0.785
101.3 kPa, x1 = 0.3646	1.223	–	1.014	–	0.879	0.77
101.3 kPa, x1 = 0.4786	1.195	–	1.018	–	0.882	0.76
101.3 kPa, x1 = 0.6021	1.16	–	0.981	–	0.853	0.749
101.3 kPa, x1 = 0.7164	1.125	–	0.965	–	0.84	0.738
101.3 kPa, x1 = 0.8783	1.099	–	0.943	–	0.822	0.724

CC(=O)Oc1ccccc1C(=O)O + CC(C)O
viscosity [mPa·s], 101 kPa
Conditions	x1 = 0.00057	x1 = 0.000763	x1 = 0.000955	x1 = 0.00115	x1 = 0.00134	x1 = 0.00153	x1 = 0.00191
293.15 K	2.382	2.382	2.383	2.384	2.385	2.386	2.389
298.15 K	2.045	2.045	2.046	2.046	2.047	2.048	2.049
303.15 K	1.763	1.764	1.764	1.765	1.766	1.767	1.768
308.15 K	1.524	1.524	1.525	1.525	1.525	1.526	1.526
310.15 K	1.437	1.438	1.438	1.438	1.439	1.439	1.44
313.15 K	1.392	1.392	1.393	1.393	1.394	1.394	1.395

c1ccc2ccccc2c1 + CCCCO
viscosity
Conditions	303.15 K	308.15 K	313.15 K	318.15 K	323.15 K
101 kPa, x1 = 0.07958	2.076 mPa·s	1.848 mPa·s	1.633 mPa·s	1.461 mPa·s	1.312 mPa·s
101 kPa, x1 = 0.1174	–	1.796 mPa·s	1.601 mPa·s	1.427 mPa·s	1.28 mPa·s
101.33 kPa, x1 = 0.06489	–	–	1.67 mPa·s	–	1.33 mPa·s
101.33 kPa, x1 = 0.07958	2.076 mPa·s	1.848 mPa·s	1.633 mPa·s and 1.633 mPa·s	1.461 mPa·s	1.312 mPa·s and 1.312 mPa·s
101.33 kPa, x1 = 0.09537	–	–	1.624 mPa·s	–	1.3 mPa·s
101.33 kPa, x1 = 0.1174	–	–	1.601 mPa·s	–	1.28 mPa·s
101.33 kPa, x1 = 0.12	–	1.796 mPa·s	1.601 mPa·s	1.427 mPa·s	1.28 mPa·s
101.33 kPa, x1 = 0.1436	–	–	1.567 mPa·s	–	1.26 mPa·s
